Series [1] addresses T1, Protein mono-ADP-ribosyltransferase PARP10 (Homo sapiens, UniProt Q53GL7).
T1 sequence (Q53GL7 whole entry): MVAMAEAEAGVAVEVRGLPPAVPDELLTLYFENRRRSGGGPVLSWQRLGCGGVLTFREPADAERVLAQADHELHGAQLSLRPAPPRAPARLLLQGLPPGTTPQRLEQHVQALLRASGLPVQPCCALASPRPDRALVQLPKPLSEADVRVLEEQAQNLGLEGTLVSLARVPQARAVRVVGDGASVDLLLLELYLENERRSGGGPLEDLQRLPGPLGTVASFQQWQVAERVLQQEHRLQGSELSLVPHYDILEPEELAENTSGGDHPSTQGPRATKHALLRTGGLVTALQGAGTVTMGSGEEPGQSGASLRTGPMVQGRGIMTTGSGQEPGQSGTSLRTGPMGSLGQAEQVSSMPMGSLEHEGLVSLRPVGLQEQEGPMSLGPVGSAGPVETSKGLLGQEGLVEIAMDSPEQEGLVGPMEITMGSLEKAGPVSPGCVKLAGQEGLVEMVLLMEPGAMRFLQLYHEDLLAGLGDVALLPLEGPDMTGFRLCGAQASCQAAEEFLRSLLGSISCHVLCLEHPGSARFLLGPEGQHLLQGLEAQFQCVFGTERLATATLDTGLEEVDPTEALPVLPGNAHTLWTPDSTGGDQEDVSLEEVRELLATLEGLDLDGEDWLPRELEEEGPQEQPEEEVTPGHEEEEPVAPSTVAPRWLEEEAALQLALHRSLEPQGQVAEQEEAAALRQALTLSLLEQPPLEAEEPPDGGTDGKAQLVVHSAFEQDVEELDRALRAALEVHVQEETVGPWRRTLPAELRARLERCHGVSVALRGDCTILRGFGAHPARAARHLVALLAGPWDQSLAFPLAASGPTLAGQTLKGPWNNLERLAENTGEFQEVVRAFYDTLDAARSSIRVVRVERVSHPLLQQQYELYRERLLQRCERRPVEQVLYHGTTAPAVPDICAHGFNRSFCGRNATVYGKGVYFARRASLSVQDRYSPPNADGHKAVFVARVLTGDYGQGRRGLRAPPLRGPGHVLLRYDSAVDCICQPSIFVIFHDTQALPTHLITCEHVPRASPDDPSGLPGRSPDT
As to the kind of experiment: Inhibition of human recombinant N-terminal FLAG-tagged / C-terminal Strep-tagged PARP10 (805 to 1025 end residues) expressed in baculovirus infected Sf9 cells expression system incubated for 1 hr by ELISA assay.

Series [2] can be described thus: Initial plasma concentration in ICR mouse at 1 mg/kg, iv measured upto 24 hrs by LC-MS/MS analysis. Format: ADME, organism-based.
The nature of series [3]: Apparent volume of distribution in ICR mouse at 10 mg/kg, po measured upto 24 hrs by LC-MS/MS analysis. Format: ADME, organism-based. The settings on record: in vivo.
Series [4] is described as follows: Cytotoxicity against mouse AML12 cells assessed as inhibition of cell growth measured after 6 days by MTT assay. Format: toxicity, cell-based.
Series [5] concerns CT26. As to the kind of experiment: Antitumor activity against mouse CT26 cells implanted in BALB/c mouse assessed as decrease in Ki-67 expression at 25 to 100 mg/kg, po bid measured for 14 days by immunohistochemistry analysis. Type of series: functional, organism-based. Conditions: dose 25-100 mg/kg, time 14.0 day.
The subject of series [6] is CT26. As to the kind of experiment: cells. Conditions: Mus musculus, CT26, 144 h.

Molecules are shown by their SMILES. Calls of active or inactive are those of the source. The calls are words filed in the database; no cut-off is given here. Where only a bound is given, the exact number is not on record here.

Consider `C[C@@H](CN1CC(C(=O)N2CCN(c3ncc(C(F)(F)F)cn3)CC2)C1)Nc1cn[nH]c(=O)c1C(F)(F)F`, for which the IC50 in series [1] is 0.325 µM; in series [6] it was 12.8 µM. Besides, the C0 at 24 h in series [2] was 504 ng/mL. Moreover, the Vz in series [3] was 4.5836 L/kg. The IC50 at 6 days in series [4] was more than 50 µM. The result in series [5] was Active.

In general, IC50 refers to the point on the concentration scale where inhibition reaches its midpoint.

The record behind these values is ChEMBL document CHEMBL5316291 (J Med Chem, 2023).
